Results on 14 compounds are retold here after ChEMBL document CHEMBL5543145, “Discovery of the First-in-Class G9a/GLP PROTAC Degrader” (J Med Chem, 2024).

For assay [1], the target named is T1, von Hippel-Lindau disease tumor suppressor/Histone-lysine N-methyltransferase EHMT1 (Homo sapiens, UniProt Q9H9B1+P40337). In words: PROTAC activity at GLP/VHL in human 22Rv1 cells assessed as induction of GLP degradation at 0.3 uM incubated for 24 hrs by Western blot analysis relative to control. In kind it is cell-based.
The target in assay [2] is T1, von Hippel-Lindau disease tumor suppressor/Histone-lysine N-methyltransferase EHMT1. In words: PROTAC activity at GLP/VHL in human 22Rv1 cells assessed as induction of GLP degradation at 3 uM incubated for 24 hrs by Western blot analysis relative to control. Format: cell-based. A general note: Immunoblotting shows a protein as a band on a membrane.
For assay [3], the target named is T2, von Hippel-Lindau disease tumor suppressor/Histone-lysine N-methyltransferase EHMT2 (Homo sapiens, UniProt Q96KQ7+P40337). In words: PROTAC activity at G9a/VHL in human 22Rv1 cells assessed as induction of G9a degradation at 3 uM incubated for 24 hrs by Western blot analysis relative to control. In kind it is cell-based.
Assay [4] has as its target T2, von Hippel-Lindau disease tumor suppressor/Histone-lysine N-methyltransferase EHMT2. The assay can be described thus: PROTAC activity at G9a/VHL in human 22Rv1 cells assessed as induction of G9a degradation at 0.3 uM incubated for 24 hrs by Western blot analysis relative to control. Format: cell-based.
Another assay deals with CWR22R. In words: Cytotoxicity against human 22Rv1 cells assessed as growth inhibition measured for 7 days. Format: functional. To be noted: 22Rv1, 168 h, time 7 day.
For assay [5], the target named is T1, von Hippel-Lindau disease tumor suppressor/Histone-lysine N-methyltransferase EHMT1. In words: PROTAC activity at GLP/VHL in human 22Rv1 cells assessed as induction of GLP degradation at 1 uM incubated for 24 hrs by Western blot analysis. Format: cell-based.
The subject of assay [6] is K562. In words: Cytotoxicity against human K562 cells assessed as reduction in cell viability incubated for 8 days. The settings on record: K562, 192 h. In kind it is functional, cell-based.
In assay [7] the test system is K562. In words: Cytotoxicity against human K562 cells assessed as growth inhibition incubated for 7 days. Format: functional. The settings on record: time 7.0 day.
A further assay deals with NCI-H1299. In words: Cytotoxicity against human NCI-H1299 cells assessed as growth inhibition incubated for 8 days. Format: functional. To be noted: NCI-H1299, 192 h, time 8 day.
Assay [8] has as its target T1, von Hippel-Lindau disease tumor suppressor/Histone-lysine N-methyltransferase EHMT1. In words: PROTAC activity at GLP/VHL in human 22Rv1 cells assessed as effect on VHL level at 3 uM incubated for 24 hrs by RT-qPCR analysis. In kind it is cell-based.
Assay [9] shares this target. The assay can be described thus: PROTAC activity at GLP/VHL in human 22Rv1 cells assessed as effect on GLP level upto 3 uM measured for 24 hrs by Western blot analysis. In kind it is cell-based.
In assay [10] the target is T2, von Hippel-Lindau disease tumor suppressor/Histone-lysine N-methyltransferase EHMT2. The assay can be described thus: PROTAC activity at G9a/VHL in human 22Rv1 cells assessed as effect on G9a level upto 3 uM measured for 24 hrs by Western blot analysis. In kind it is cell-based.

Calls of active or inactive are those of the source. The calls are words filed in the database; no cut-off is given here.

T1 sequence (P40337 whole entry partner): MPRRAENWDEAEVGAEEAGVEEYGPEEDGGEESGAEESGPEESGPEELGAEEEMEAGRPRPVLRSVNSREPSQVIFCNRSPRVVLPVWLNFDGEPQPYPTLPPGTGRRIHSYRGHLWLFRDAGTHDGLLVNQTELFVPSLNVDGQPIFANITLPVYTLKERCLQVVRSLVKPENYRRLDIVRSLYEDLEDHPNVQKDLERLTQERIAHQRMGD
T1 sequence (Q9H9B1 2-1298 limits assumed): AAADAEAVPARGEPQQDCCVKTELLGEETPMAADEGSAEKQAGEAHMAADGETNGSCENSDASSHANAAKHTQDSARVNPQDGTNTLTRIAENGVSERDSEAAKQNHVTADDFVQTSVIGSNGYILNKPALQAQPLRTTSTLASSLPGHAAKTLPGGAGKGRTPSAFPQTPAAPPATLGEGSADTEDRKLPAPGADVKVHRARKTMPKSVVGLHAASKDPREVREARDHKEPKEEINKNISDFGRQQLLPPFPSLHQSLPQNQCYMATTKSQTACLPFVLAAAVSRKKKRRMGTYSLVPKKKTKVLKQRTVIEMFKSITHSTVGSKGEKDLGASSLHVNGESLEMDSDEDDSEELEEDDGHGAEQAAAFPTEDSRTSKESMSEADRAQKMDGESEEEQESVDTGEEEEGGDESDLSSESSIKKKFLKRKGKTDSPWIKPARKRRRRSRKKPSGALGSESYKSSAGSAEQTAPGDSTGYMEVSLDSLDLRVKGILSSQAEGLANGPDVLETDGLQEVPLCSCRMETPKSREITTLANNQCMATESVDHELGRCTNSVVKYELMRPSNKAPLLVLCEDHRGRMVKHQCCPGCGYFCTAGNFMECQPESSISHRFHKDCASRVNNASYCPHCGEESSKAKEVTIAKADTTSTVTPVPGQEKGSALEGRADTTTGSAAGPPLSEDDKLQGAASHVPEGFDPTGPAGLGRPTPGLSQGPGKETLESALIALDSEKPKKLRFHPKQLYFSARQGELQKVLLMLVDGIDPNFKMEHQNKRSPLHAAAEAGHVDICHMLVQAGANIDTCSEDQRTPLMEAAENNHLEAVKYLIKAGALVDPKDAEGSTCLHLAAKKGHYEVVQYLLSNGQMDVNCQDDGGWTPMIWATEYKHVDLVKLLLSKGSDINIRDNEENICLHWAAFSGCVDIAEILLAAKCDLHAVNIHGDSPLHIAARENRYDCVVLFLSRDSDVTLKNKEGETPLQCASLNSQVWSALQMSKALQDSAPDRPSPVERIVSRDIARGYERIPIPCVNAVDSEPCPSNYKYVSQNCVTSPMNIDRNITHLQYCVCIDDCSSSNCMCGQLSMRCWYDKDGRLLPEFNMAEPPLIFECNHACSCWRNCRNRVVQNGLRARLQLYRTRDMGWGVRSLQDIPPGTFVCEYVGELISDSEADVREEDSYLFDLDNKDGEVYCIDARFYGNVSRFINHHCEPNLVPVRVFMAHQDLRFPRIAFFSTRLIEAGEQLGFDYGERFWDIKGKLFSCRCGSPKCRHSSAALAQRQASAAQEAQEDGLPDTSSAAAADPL
T2 sequence (P40337 whole entry partner): as the sequence (P40337 whole entry partner) above
T2 sequence (Q96KQ7 2-1210 limits assumed): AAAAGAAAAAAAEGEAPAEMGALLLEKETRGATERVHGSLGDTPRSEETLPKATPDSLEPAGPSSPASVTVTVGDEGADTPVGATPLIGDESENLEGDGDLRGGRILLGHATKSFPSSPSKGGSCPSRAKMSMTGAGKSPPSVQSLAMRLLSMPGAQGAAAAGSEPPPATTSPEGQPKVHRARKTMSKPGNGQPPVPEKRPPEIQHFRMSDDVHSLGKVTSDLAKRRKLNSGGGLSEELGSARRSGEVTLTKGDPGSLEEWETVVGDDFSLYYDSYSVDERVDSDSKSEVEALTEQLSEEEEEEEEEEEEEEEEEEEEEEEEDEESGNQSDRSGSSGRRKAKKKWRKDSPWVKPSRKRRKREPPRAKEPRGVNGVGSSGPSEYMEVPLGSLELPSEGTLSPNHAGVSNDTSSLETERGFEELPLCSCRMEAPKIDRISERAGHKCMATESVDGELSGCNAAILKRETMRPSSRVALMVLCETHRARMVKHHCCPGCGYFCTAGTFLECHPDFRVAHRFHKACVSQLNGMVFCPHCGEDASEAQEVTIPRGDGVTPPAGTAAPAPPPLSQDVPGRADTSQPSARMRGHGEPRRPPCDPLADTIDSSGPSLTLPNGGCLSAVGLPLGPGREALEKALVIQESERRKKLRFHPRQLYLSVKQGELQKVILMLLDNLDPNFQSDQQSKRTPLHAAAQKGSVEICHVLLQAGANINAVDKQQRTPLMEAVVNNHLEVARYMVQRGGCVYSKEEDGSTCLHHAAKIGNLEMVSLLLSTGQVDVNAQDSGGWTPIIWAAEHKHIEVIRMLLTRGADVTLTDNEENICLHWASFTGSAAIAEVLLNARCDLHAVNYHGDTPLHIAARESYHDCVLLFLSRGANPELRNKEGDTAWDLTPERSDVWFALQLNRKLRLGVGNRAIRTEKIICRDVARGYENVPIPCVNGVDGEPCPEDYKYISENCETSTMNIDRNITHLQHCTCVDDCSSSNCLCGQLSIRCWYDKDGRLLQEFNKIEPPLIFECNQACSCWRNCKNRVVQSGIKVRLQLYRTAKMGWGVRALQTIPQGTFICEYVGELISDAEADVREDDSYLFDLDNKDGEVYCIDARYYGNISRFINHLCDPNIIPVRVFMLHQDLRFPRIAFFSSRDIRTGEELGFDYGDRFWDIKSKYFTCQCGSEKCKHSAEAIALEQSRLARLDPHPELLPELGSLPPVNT

For orientation: Emax means the greatest response seen or fitted, relative to the assay's reference. Take `COc1cc2c(NC3CCN(CCCC(=O)NCCOCCC(=O)N[C@H](C(=O)N4C[C@H](O)C[C@H]4C(=O)NCc4ccc(-c5scnc5C)cc4)C(C)(C)C)CC3)nc(N3CCC(F)(F)CC3)nc2cc1OCCCN1CCCC1`: the Emax in assay [1] was < 10%; in [2] it was 88%.

Take `COc1cc2c(NC3CCN(CCCC(=O)NCCOCCOCCC(=O)N[C@H](C(=O)N4C[C@H](O)C[C@H]4C(=O)NCc4ccc(-c5scnc5C)cc4)C(C)(C)C)CC3)nc(N3CCC(F)(F)CC3)nc2cc1OCCCN1CCCC1`: the maximum response (Emax) was < 13% in assay [3], < 7% in assay [1] and 21% in assay [2].

For the compound `COc1cc2c(NC3CCN(CCCC(=O)NCCCC(=O)N[C@H](C(=O)N4C[C@H](O)C[C@H]4C(=O)NCc4ccc(-c5scnc5C)cc4)C(C)(C)C)CC3)nc(N3CCC(F)(F)CC3)nc2cc1OCCCN1CCCC1`, the maximal effect (Emax) was < 3% in [1], < 8% in assay [4] and 21% in [2].

In the case of `COc1cc2c(NC3CCN(CCCC(=O)NCCCCCC(=O)N[C@H](C(=O)N4C[C@H](O)C[C@H]4C(=O)NCc4ccc(-c5scnc5C)cc4)C(C)(C)C)CC3)nc(N3CCC(F)(F)CC3)nc2cc1OCCCN1CCCC1`, the maximal response (Emax) in [3] is < 30%; in assay [1], < 5%; in [2] it was < 19%.

For `COc1cc2c(NN3CCN(CCCC(=O)NCCCCCCCCC(=O)N[C@H](C(=O)N4C[C@H](O)C[C@H]4C(=O)NCc4ccc(-c5scnc5C)cc4)C(C)(C)C)CC3)nc(N3CCC(F)(F)CC3)nc2cc1OCCCN1CCCC1`, the Emax in assay [3] is 87%; in [1], < 27%; in assay [2], 86%.

Regarding `COc1cc2c(NC3CCN(CCCC(=O)NCCC(=O)N[C@H](C(=O)N4C[C@H](O)C[C@H]4C(=O)NCc4ccc(-c5scnc5C)cc4)C(C)(C)C)CC3)nc(N3CCC(F)(F)CC3)nc2cc1OCCCN1CCCC1`, the Emax in assay [3] was 61%; in assay [1], 54%; in assay [4], 66%; in assay [2], 70%.

As for `COc1cc2c(NC3CCN(CCCC(=O)NCCCCC(=O)N[C@H](C(=O)N4C[C@H](O)C[C@H]4C(=O)NCc4ccc(-c5scnc5C)cc4)C(C)(C)C)CC3)nc(N3CCC(F)(F)CC3)nc2cc1OCCCN1CCCC1`, the maximal effect (Emax) in [3] was < 11%; in assay [1], < 9%; in assay [2] it was < 11%.

Consider `COc1cc2c(NC3CCN(CCCC(=O)NCCCCCCCCCC(=O)N[C@H](C(=O)N4C[C@H](O)C[C@H]4C(=O)NCc4ccc(-c5scnc5C)cc4)C(C)(C)C)CC3)nc(N3CCC(F)(F)CC3)nc2cc1OCCCN1CCCC1`, for which the Emax was < 92% in assay [3], 84% in [1], 67% in assay [4] and < 96% in [2].

For the compound `COc1cc2c(NC3CCN(CCCC(=O)NCCOCCOCCOCCC(=O)N[C@H](C(=O)N4C[C@H](O)C[C@H]4C(=O)NCc4ccc(-c5scnc5C)cc4)C(C)(C)C)CC3)nc(N3CCC(F)(F)CC3)nc2cc1OCCCN1CCCC1`, the maximal effect (Emax) in assay [1] was < 16%; in [2] it was < 27%.

As usually defined, the GI50 is the concentration that inhibits growth by half. As a reminder, the IC50 is the concentration needed to halve the response being measured. Regarding `COc1cc2c(NC3CCN(C(C)C)CC3)nc(N3CCC(F)(F)CC3)nc2cc1OCCCN1CCCC1`, the GI50 in the assay with CWR22R and in the assay with NCI-H1299 was > 10 µM each time. Moreover, the outcome (in assay [5]; in the assay with K562 [7]) was inactive. Besides, the concentration for half-maximal inhibition (IC50) in the assay with K562 [6] was > 10 µM. Further, the result in assay [8] was Active.

As for `COc1cc2c(NC3CCN(CCCC(=O)NCCCCCCCCCCC(=O)N[C@H](C(=O)N4C[C@H](O)C[C@H]4C(=O)NCc4ccc(-c5scnc5C)cc4)C(C)(C)C)CC3)nc(N3CCC(F)(F)CC3)nc2cc1OCCCN1CCCC1`, the Emax was < 92% in assay [3], 69% in assay [1], 79% in [4] and < 94% in assay [2].

With `COc1cc2c(NC3CCN(CCCC(=O)NCCCCCCCC(=O)N[C@H](C(=O)N4C[C@H](O)C[C@H]4C(=O)NCc4ccc(-c5scnc5C)cc4)C(C)(C)C)CC3)nc(N3CCC(F)(F)CC3)nc2cc1OCCCN1CCCC1`, the maximal effect (Emax) in assay [3] is 75%; in assay [1] it was < 28%; in assay [2] it was 68%.

Take `COc1cc2c(NC3CCN(CCCC(=O)NCCCCCCCCCCCC(=O)N[C@H](C(=O)N4C[C@@H](O)C[C@@H]4C(=O)NCc4ccc(-c5scnc5C)cc4)C(C)(C)C)CC3)nc(N3CCC(F)(F)CC3)nc2cc1OCCCN1CCCC1`: the result in assay [9] and in [10] was inactive.

For the compound `COc1cc2c(NC3CCN(CCCC(=O)NCCCCCCC(=O)N[C@H](C(=O)N4C[C@H](O)C[C@H]4C(=O)NCc4ccc(-c5scnc5C)cc4)C(C)(C)C)CC3)nc(N3CCC(F)(F)CC3)nc2cc1OCCCN1CCCC1`, the Emax in [3] is < 30%; in assay [1], < 7%; in assay [4], < 10%; in assay [2], < 20%.
